Measurements published in patent US10711036B2, “MALT1 inhibitors and uses thereof” (Cornell University, priority 2015, dated 2020).
*1 amine or outer side, *2 acyl side, *3 side chain or, on linkers, in order; H or OH if unused. Where a SMILES comes first, the peptide text is derived from it. [ ]: non-standard residue; d: D form. The star is where a group is joined. cisHyp = O=C(O)[C@@H]1C[C@H](O)CN1; Hydrocinnamoyl = O=C(CCc1ccccc1)*; Chg = N[C@H](C(=O)O)C1CCCCC1; Phg = N[C@H](C(=O)O)c1ccccc1; Tle = CC(C)(C)[C@H](N)C(=O)O; NMeV = CN[C@H](C(=O)O)C(C)C; αMeP = C[C@@]1(C(=O)O)CCCN1; Pip = O=C(O)[C@@H]1CCCCN1; 3Abz = Nc1cccc(C(=O)O)c1; ClZ = O=C(OCc1ccccc1Cl)*; Cbz = O=C(OCc1ccccc1)*; PhAc = O=C(Cc1ccccc1)*; CO = O=C([*:1])[*:2]; Bz = O=C(c1ccccc1)*; NHPh = c1ccc(N*)cc1; CH2F = FC*

Tests used:
[1] = molecular target: MALT1 (Homo sapiens (Human), UniProt Q9UDY8); assay: Inhibition constants (Ki) for inhibition of MALT1; assay type: biochemical; conditions: 100 nM MALT1 used for the assay
MALT1, sequence (Q9UDY8 whole entry): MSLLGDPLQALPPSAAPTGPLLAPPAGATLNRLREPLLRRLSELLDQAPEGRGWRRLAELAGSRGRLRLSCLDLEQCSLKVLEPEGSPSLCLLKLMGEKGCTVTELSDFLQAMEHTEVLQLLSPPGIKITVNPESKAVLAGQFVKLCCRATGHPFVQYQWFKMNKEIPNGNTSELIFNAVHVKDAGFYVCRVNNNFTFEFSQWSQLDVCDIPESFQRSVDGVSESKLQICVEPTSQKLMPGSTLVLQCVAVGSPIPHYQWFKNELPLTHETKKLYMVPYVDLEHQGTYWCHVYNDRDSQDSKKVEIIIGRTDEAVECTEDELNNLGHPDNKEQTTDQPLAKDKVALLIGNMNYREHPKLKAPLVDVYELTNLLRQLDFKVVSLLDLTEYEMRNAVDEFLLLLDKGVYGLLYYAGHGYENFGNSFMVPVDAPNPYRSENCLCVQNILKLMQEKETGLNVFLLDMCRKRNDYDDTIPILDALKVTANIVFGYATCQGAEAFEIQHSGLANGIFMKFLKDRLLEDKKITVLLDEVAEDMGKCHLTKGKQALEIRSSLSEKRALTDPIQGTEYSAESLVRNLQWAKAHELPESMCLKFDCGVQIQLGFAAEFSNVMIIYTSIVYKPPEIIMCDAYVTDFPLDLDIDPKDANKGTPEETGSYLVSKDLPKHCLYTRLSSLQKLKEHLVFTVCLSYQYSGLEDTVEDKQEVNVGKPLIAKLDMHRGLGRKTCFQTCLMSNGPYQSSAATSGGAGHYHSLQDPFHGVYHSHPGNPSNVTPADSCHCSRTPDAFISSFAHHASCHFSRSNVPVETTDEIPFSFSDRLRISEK
Description: For exemplary compounds of the disclosure, Ki for inhibition of MALT1 was measured (Table E11). A concentration of 100 nM MALT1 was used for the assay.

[2] = system: OCI-LY3; assay: Cell growth inhibition assay (CellTiter-Glo, 96 hours), OCI-LY3; assay type: cell-based, human; conditions: OCI-LY3 cells, treated at t=0 and t=48 hours, ATP luminescence
Description: DLBCL cell lines were grown in exponential growth conditions during the 96 hours of treatment. Cells were treated twice: at t=0 and t=48 hours, and cell viability was determined by ATP quantification using a luminescent method ([…]-GLO, Promega, Madison, Wis.). Cell viability in drug-treated cells was normalized to vehicle controls (fractional viability) and results are given as 1-fractional viability.
Experiments were Performed in Triplicate.

Structure (SMILES) | Ki [1] [nM] | GI50 ([2]; Homo sapiens) [nM] | GI50 [2] [nM]
CC(C)(C)[C@H](NC(=O)OCc1ccccc1)C(=O)N1CCC[C@H]1C(=O)N[C@@H](CCCNC(=N)N)C(=O)CF [Compound 103] (Cbz-[Tle]-Pro-Arg-CH2F) | 43 | 1440 | 
N=C(N)NCCC[C@H](NC(=O)[C@@H]1CCCN1C(=O)[C@@H](NC(=O)OCc1ccccc1)c1ccccc1)C(=O)CF [Compound 104] (Cbz-[Phg]-Pro-Arg-CH2F) | 154 | 8050 | 
N=C(N)NCCC[C@H](NC(=O)[C@@H]1CCCN1C(=O)[C@@H](NC(=O)OCc1ccccc1)c1cccnc1)C(=O)CF [Compound 105] | 55 | 4260 | 
N=C(N)NCCC[C@H](NC(=O)[C@@H]1CCCN1C(=O)[C@H](NC(=O)OCc1ccccc1)c1cccnc1)C(=O)CF [Compound 106] | 146 | 8430 | 
N=C(N)NCCC[C@H](NC(=O)[C@@H]1CCCCN1C(=O)[C@@H](NC(=O)OCc1ccccc1)C1CCCCC1)C(=O)CF [Compound 108] (Cbz-[Chg]-[Pip]-Arg-CH2F) | 37 | 1330 | 
CC(C)[C@H](NC(=O)OCc1ccccc1)C(=O)N1C[C@@H](O)C[C@H]1C(=O)N[C@@H](CCCNC(=N)N)C(=O)CF [Compound 110] (Cbz-Val-[cisHyp]-Arg-CH2F) | 49 | 1070 | 
CC(C)[C@H](NC(=O)OCc1ccccc1)C(=O)N1CCC[C@@]1(C)C(=O)N[C@@H](CCCNC(=N)N)C(=O)CF [Compound 111] (Cbz-Val-[αMeP]-Arg-CH2F) | 158 | 10500 | 
CC(C)[C@H](NC(=O)c1ccc(N2CCOCC2)cc1)C(=O)N1CCC[C@H]1C(=O)N[C@@H](CCCNC(=N)N)C(=O)CF [Compound 127] | 75 | > 20000 | 
CC(C)[C@H](NC(=O)c1csc(N2CCOCC2)n1)C(=O)N1CCC[C@H]1C(=O)N[C@@H](CCCNC(=N)N)C(=O)CF [Compound 128] | 111 | > 20000 | 
CC(C)[C@H](NC(=O)c1cccc(N2CCOCC2)c1)C(=O)N1CCC[C@H]1C(=O)N[C@@H](CCCNC(=N)N)C(=O)CF [Compound 131] | 58 | 14500 | 
CC(C)[C@H](NC(=O)c1cccc(N2CCN(C)CC2)c1)C(=O)N1CCC[C@H]1C(=O)N[C@@H](CCCNC(=N)N)C(=O)CF [Compound 132] | 175 | > 20000 | 
CC(C)[C@H](NC(=O)c1ccc(C(F)(F)F)cc1)C(=O)N1CCC[C@H]1C(=O)N[C@@H](CCCNC(=N)N)C(=O)CF [Compound 135] | 132 | 120 | 
CC(C)[C@H](NC(=O)c1ccc(-c2ccccc2)cc1)C(=O)N1CCC[C@H]1C(=O)N[C@@H](CCCNC(=N)N)C(=O)CF [Compound 137] | 30 | 550 | 
CC(C)[C@H](NC(=O)c1ncc(-c2ccccc2)s1)C(=O)N1CCC[C@H]1C(=O)N[C@@H](CCCNC(=N)N)C(=O)CF [Compound 139] | 121 | 1750 | 
CC(C)[C@H](NC(=O)OCc1ccccc1)C(=O)N[C@@H](CO)C(=O)N[C@@H](CCCNC(=N)N)C(=O)CF [Compound 140] | 64 | 290 | 
N=C(N)NCCC[C@H](NC(=O)[C@@H]1CCCN1C(=O)[C@H](Cc1cccnc1)NC(=O)c1ccc(Br)cc1)C(=O)CF [Compound 142] |  | 14100 | 
N=C(N)NCCC[C@H](NC(=O)[C@@H]1CCCN1C(=O)[C@@H](NC(=O)c1ccc(Br)cc1)C1CCCCC1)C(=O)CF [Compound 143] | 45 | 130 | 
CC(C)[C@H](NC(=O)c1ccc(OC(F)(F)F)cc1)C(=O)N1CCC[C@H]1C(=O)N[C@@H](CCCNC(=N)N)C(=O)CF [Compound 145] | 27 | 700 | 
CC(C)[C@H](NC(=O)c1cccc(OC(F)(F)F)c1)C(=O)N1CCC[C@H]1C(=O)N[C@@H](CCCNC(=N)N)C(=O)CF [Compound 148] | 15 | 530 | 
CC(C)[C@H](NC(=O)c1ccc(Br)cc1)C(=O)N[C@@H](CO)C(=O)N[C@@H](CCCNC(=N)N)C(=O)CF [Compound 149] | 64 |  | 
CC(C)[C@H](NC(=O)c1ccc2ccccc2c1)C(=O)N1CCC[C@H]1C(=O)N[C@@H](CCCNC(=N)N)C(=O)CF [Compound 152] | 47 |  | 
N=C(N)NCCC[C@H](NC(=O)[C@@H]1C[C@@H](O)CN1C(=O)[C@@H](NC(=O)c1ccc(Br)cc1)C1CCCCC1)C(=O)CF [Compound 172] |  | 60 | 
CC(C)[C@H](NC(=O)c1ccc(Br)cc1)C(=O)N1C[C@H](C#N)C[C@H]1C(=O)N[C@@H](CCCNC(=N)N)C(=O)CF [Compound 177] | 28 |  | 
CC(C)[C@H](NC(=O)c1ccc(Br)cc1)C(=O)N[C@@H](C)C(=O)N[C@@H](CCCNC(=N)N)C(=O)CF [Compound 178] | 38 |  | 
N=C(N)NCCC[C@H](NC(=O)[C@@H]1CCCN1C(=O)[C@H](CC1CCCCC1)NC(=O)c1ccc(Br)cc1)C(=O)CF [Compound 187] | 122 |  | 
CC(C)[C@H](NC(=O)OCc1ccccc1)C(=O)N1CCC[C@H]1C(=O)N[C@@H](CCCNC1=NCCN1)C(=O)CF [Compound 201] |  |  | > 5000

The next lines start with the values.

Ki [1] [nM] | GI50 ([2]; Homo sapiens) [nM] | GI50 [2] [nM] | Structure (SMILES)
40 | 660 |  | CC(C)[C@H](NC(=O)c1ccccc1)C(=O)N1CCC[C@H]1C(=O)N[C@@H](CCCNC(=N)N)C(=O)CF [Compound 113] (Bz-Val-Pro-Arg-CH2F)
42 | 3370 |  | CC(C)[C@H](NC(=O)Cc1ccccc1)C(=O)N1CCC[C@H]1C(=O)N[C@@H](CCCNC(=N)N)C(=O)CF [Compound 117] (PhAc-Val-Pro-Arg-CH2F)
46 | 2910 |  | CC(C)[C@H](NC(=O)Cc1cccc(Br)c1)C(=O)N1CCC[C@H]1C(=O)N[C@@H](CCCNC(=N)N)C(=O)CF [Compound 118]
43 | 1880 |  | CC(C)[C@H](NC(=O)CCc1ccccc1)C(=O)N1CCC[C@H]1C(=O)N[C@@H](CCCNC(=N)N)C(=O)CF [Compound 119] (Hydrocinnamoyl-Val-Pro-Arg-CH2F)
109 | 7290 |  | COc1ccccc1C(=O)N[C@H](C(=O)N1CCC[C@H]1C(=O)N[C@@H](CCCNC(=N)N)C(=O)CF)C(C)C [Compound 121]
75 | 2000 |  | COc1cccc(C(=O)N[C@H](C(=O)N2CCC[C@H]2C(=O)N[C@@H](CCCNC(=N)N)C(=O)CF)C(C)C)c1 [Compound 122]
50 | 1670 |  | COc1ccc(C(=O)N[C@H](C(=O)N2CCC[C@H]2C(=O)N[C@@H](CCCNC(=N)N)C(=O)CF)C(C)C)cc1 [Compound 123]
100 | 16800 |  | CC(C)[C@H](NC(=O)c1cnn(C)c1)C(=O)N1CCC[C@H]1C(=O)N[C@@H](CCCNC(=N)N)C(=O)CF [Compound 124]
 | 9650 |  | Cc1nc(C(=O)N[C@H](C(=O)N2CCC[C@H]2C(=O)N[C@@H](CCCNC(=N)N)C(=O)CF)C(C)C)cs1 [Compound 125]
60 | 6660 |  | CC(C)[C@H](NC(=O)c1ccc(C#N)cc1)C(=O)N1CCC[C@H]1C(=O)N[C@@H](CCCNC(=N)N)C(=O)CF [Compound 126]
52 | 1520 |  | CC(C)[C@H](NC(=O)Nc1ccccc1)C(=O)N1CCC[C@H]1C(=O)N[C@@H](CCCNC(=N)N)C(=O)CF [Compound 129] ({NHPh-CO}-Val-Pro-Arg-CH2F)
 | 3720 |  | CC(C)[C@H](NS(=O)(=O)c1ccc(Br)cc1)C(=O)N1CCC[C@H]1C(=O)N[C@@H](CCCNC(=N)N)C(=O)CF [Compound 130]
54 | > 20000 |  | CC(=O)Nc1cccc(C(=O)N[C@H](C(=O)N2CCC[C@H]2C(=O)N[C@@H](CCCNC(=N)N)C(=O)CF)C(C)C)c1 [Compound 133] (Ac-[3Abz]VPR-CH2F)
39 | 3690 |  | CC(C)[C@H](NC(=O)c1cccc(C#N)c1)C(=O)N1CCC[C@H]1C(=O)N[C@@H](CCCNC(=N)N)C(=O)CF [Compound 134]
67 | 1240 |  | CC(C)[C@H](NC(=O)c1ccc(Cl)cc1)C(=O)N1CCC[C@H]1C(=O)N[C@@H](CCCNC(=N)N)C(=O)CF [Compound 136]
 | 1240 |  | CC(C)[C@H](NC(=O)c1ccc(Br)s1)C(=O)N1CCC[C@H]1C(=O)N[C@@H](CCCNC(=N)N)C(=O)CF [Compound 138]
79 | 460 |  | CC(C)[C@H](NC(=O)c1ccc(Br)cc1)C(=O)N1CCCC[C@H]1C(=O)N[C@@H](CCCNC(=N)N)C(=O)CF [Compound 144]
 | 500 |  | CC(C)[C@H](NC(=O)c1ccc(Br)c(C#N)c1)C(=O)N1CCC[C@H]1C(=O)N[C@@H](CCCNC(=N)N)C(=O)CF [Compound 146]
24 | 550 |  | CC(C)[C@H](NC(=O)c1ccc(Cl)c(C#N)c1)C(=O)N1CCC[C@H]1C(=O)N[C@@H](CCCNC(=N)N)C(=O)CF [Compound 147]
 | 270 |  | CC(C)c1ccc(C(=O)N[C@H](C(=O)N2CCC[C@H]2C(=O)N[C@@H](CCCNC(=N)N)C(=O)CF)C(C)C)cc1 [Compound 163]
557 |  |  | CC(C)[C@H](NC(=O)Nc1cccc(Cl)c1)C(=O)N1CCC[C@H]1C(=O)N[C@H](CCCNC(=N)N)C(=O)CF [Compound 166]
32 |  |  | CC(C)[C@H](NC(=O)OCc1ccc(Cl)cc1)C(=O)N1CCC[C@H]1C(=O)N[C@@H](CCCNC(=N)N)C(=O)CF [Compound 168]
22 |  |  | CC(C)[C@H](NC(=O)OCc1cccc(Cl)c1)C(=O)N1CCC[C@H]1C(=O)N[C@@H](CCCNC(=N)N)C(=O)CF [Compound 169]
27 |  |  | CC(C)[C@H](NC(=O)OCc1ccccc1Cl)C(=O)N1CCC[C@H]1C(=O)N[C@@H](CCCNC(=N)N)C(=O)CF [Compound 170] (ClZ-Val-Pro-Arg-CH2F)
> 200 |  |  | CN[C@H](C(=O)N1CCC[C@H]1C(=O)N[C@@H](CCCNC(=N)N)C(=O)CF)C(C)C [Compound 205] (H-[NMeV]-Pro-Arg-CH2F)
